Entries after “also recorded” stand apart in the source; their conditions may differ. Marks after values point to notes of the source that are not given here.
Columns and labels:
Lautropia mirabilis = assay: Clinical trial: plaque microbial analysis, Lautropia mirabilis; assay type: in vivo; details: 18.8 mg CPP-ACP sugar-free gum, 20 min six times per day, 14 days, vs no gum chewing; supragingival plaque
From the text: (§1) Following the completion of the examination and supragingival plaque collection, participants received a supragingival scaling, clean and prophylaxis of all their teeth. At the completion of the last examination for leg 3, each participant received a professional fluoride treatment.
(§2) Participants had all supragingival plaque collected from the buccal surfaces of their maxillary molars (teeth 17, 16, 26 & 27) with a sterile scaling instrument. The plaque samples from each tooth were placed in separate sterile tubes, to give four samples per participant.
(§3) Genomic DNA was extracted from the plaque using a combination of mechanical disruption of the cells via a Precellys homogeniser and the chemical extraction and purification of the genomic DNA via the PowerLyzer PowerSoil DNA Isolation Kit (MoBio). Quantitation of the extracted DNA was achieved using a Qubit dsDNA High Sensitivity Assay kit (ThermoFisher), before 5 ng DNA was used as template in a PCR reaction that amplified the V4 variable region of the 16S ribosomal RNA gene and individually barcoded the PCR product from each sample. The barcoded DNA was then sequenced using an Ion Torrent Personal Genome machine and Torrent Suite™ Software (ThermoFisher).
(§4) Analysis of the resulting sequence of the 16S ribosomal RNA gene enabled identification of the bacterial population present in each sample, down to the species level. […]

[1] = system: Lactobacillus casei (NCDO 161); assay: Six species polymicrobial biofilm in constant-depth film fermenter, species composition: L. casei; assay type: cell-based
Description: (§5) To model supragingival plaque six representative oral bacterial species, Streptococcus sanguinis (NCTC 7863), Streptococcus mutans Ingbritt, Actinomyces naeslundii (NCTC 10301), Veillonella parvula (ATCC 17745), Lactobacillus casei (NCDO 161) and Fusobacterium nucleatum (ATCC 10953) (Table 5) were cultured as a polymicrobial biofilm on a human enamel substratum in a constant-depth film fermenter (CDFF; Cardiff University, UK). The CDFF was housed in a 37° C. incubator under anaerobic conditions which were maintained by a constant flow of 5% CO2 in N2 at 1 L/h. The CDFF contained 15 removable polytetrafluoroethylene (PTFE) pans on a circular platform that was rotated at a constant speed of three rpm. The biofilms were grown on three enamel blocks (see below) in each PTFE pan using an artificial saliva medium (ASM, 2.5 g/L mucin type II (porcine, gastric, Sigma), 2.0 g/L bacteriological peptone (Oxoid), 2.0 g/L tryptone (Oxoid), 1.0 g/L yeast extract (Oxoid), 0.35 g/L NaCl, 0.2 g/L KCl, 0.2 mg/L vitamin K, 1 mg/L haemin and 0.1 g/L cysteine hydrochloride) at a constant flow rate of 30 mL/h. Prior to inoculation, the CDFF pan surfaces were conditioned for 24 h with ASM at a flow rate of 10 mL/h (McBain et al (2003) J Appl Microbiol. 94(4):655-66). In order to mimic in vivo bacterial growth conditions in the oral cavity with dietary sugar intake and to provide a high cariogenic challenge, a 1% (w/v) sucrose solution in ASM was pumped into the CDFF four times a day at four hourly intervals with a flow rate of 30 mL/h for 10 min.
(§6) Three treatments were applied to the polymicrobial biofilms: 290 ppm fluoride with 220 ppm fluoride as SnF2 and 70 ppm fluoride as NaF (referred to as SnF2), 2% CPP-ACP and 2% CPP-ACP-SnF2. These treatments were compared with the control in which the test solution was replaced with ASM. Each treatment was applied using two 10 min pulses of the test solution in ASM with a flow rate of 30 mL/h. The first pulse started 30 min prior to the first sucrose pulse of the morning and the second started 3 h 30 min after the final sucrose pulse of the day.
(§7) On day 6, 12 and 19 after inoculation four pans were removed aseptically from the CDFF and replaced with blank sterile pans. Enamel blocks from the pans were removed for bacterial enumeration and transverse microradiography.
Planktonic and loosely attached bacterial cells were firstly removed from the enamel blocks by light washing with 100 μL ASM. […]
(§8) For each timepoint, DNA was extracted separately from 8-9 enamel blocks using PowerLyzer® PowerSoil® DNA Isolation Kits (MoBio Laboratories) following the manufacturers “Vacuum Protocol” with a Precellys® bead homogeniser (Bertin Technologies). Samples were quantified using a Qubit™ dsDNA HS assay kit (Life Technologies) before being stored at −80° C. […]

Leptothrichia shahii = assay: Clinical trial: plaque microbial analysis, Leptothrichia shahii; assay type: in vivo; details: 18.8 mg CPP-ACP sugar-free gum, 20 min six times per day, 14 days, vs no gum chewing; supragingival plaque
From the text: as §1, §2, §3, §4

Leptotrichia wadei = assay: Clinical trial: plaque microbial analysis, Leptotrichia wadei; assay type: in vivo; details: 18.8 mg CPP-ACP sugar-free gum, 20 min six times per day, 14 days, vs no gum chewing; supragingival plaque
From the text: as §1, §2, §3, §4

[2] = system: Fusobacterium nucleatum (ATCC 10953); assay: Six species polymicrobial biofilm in constant-depth film fermenter, species composition: F. nucleatum; assay type: cell-based
Description: as §5, §6, §7
Planktonic and loosely attached bacterial cells were firstly removed from the enamel blocks by light washing with 100 μL ASM. To harvest the biofilm cells on each block, the surface was scraped with a sterile scraper with 1 mL of ASM. The biofilm bacterial cells were sedimented by centrifugation (10,000 g, 10 min), the supernatant carefully decanted and the cell pellets stored at −80° C. until required for DNA extraction. The enamel blocks were then used for sectioning and microradiography.
For each timepoint, DNA was extracted separately from 8-9 enamel blocks using PowerLyzer® PowerSoil® DNA Isolation Kits (MoBio Laboratories) following the manufacturers “Vacuum Protocol” with a Precellys® bead homogeniser (Bertin Technologies). Samples were quantified using a Qubit™ dsDNA HS assay kit (Life Technologies) before being stored at −80° C.
The Ion Amplicon Library Preparation Fusion Method (Thermo Fisher Scientific), was adapted for amplification of the V4 region of the 16S rRNA gene. […]

Leptotrichia buccalis = assay: Clinical trial: plaque microbial analysis, Leptotrichia buccalis; assay type: in vivo; details: 18.8 mg CPP-ACP sugar-free gum, 20 min six times per day, 14 days, vs no gum chewing; supragingival plaque
From the text: as §1, §2, §3, §4

[3] = system: Actinomyces naeslundii (NCTC 10301); assay: Six species polymicrobial biofilm in constant-depth film fermenter, species composition: A. naeslundii; assay type: cell-based; details: 19 days; mean ± standard deviation; n = 5-21
Description: as §5
Three treatments were applied to the polymicrobial biofilms: 290 ppm fluoride with 220 ppm fluoride as SnF2 and 70 ppm fluoride as NaF (referred to as SnF2), 2% CPP-ACP and 2% CPP-ACP-SnF2. […]
as §8

[4] = 19 days, mean ± standard deviation, n = 5-21

## Casein phosphopeptide-amorphous calcium phosphate [CPP-ACP]
Lautropia mirabilis
  % decrease in relative abundance, Lautropia mirabilis: 70% (p < 0.05)
[1]; [4]
  L. casei as a percentage of total bacteria in the biofilm: 0.38 ± 0.23^ac %
[1]; twice daily treatment, day 19
  change in abundance of L. casei relative to the control (in words): dramatically decreased; also recorded: suppressed the emergence
[1]; twice daily treatment, consistent
  decrease in relative abundance of L. casei compared with the control: > 95%
Leptothrichia shahii
  % decrease in relative abundance, Leptothrichia shahii: 73% (p < 0.01)
Leptotrichia wadei
  % decrease in relative abundance, Leptotrichia wadei: 91% (p < 0.001)
[2]; [4]
  F. nucleatum as a percentage of total bacteria in the biofilm: 2.43 ± 1.21^ace %
[2]; day 19, FIG. 5B
  change in abundance of F. nucleatum after treatment relative to the control (increase): 355%
[2]; twice daily treatment, day 19
  change in abundance of F. nucleatum relative to the control (in words): significantly increased; also recorded: reproducible increases
Leptotrichia buccalis
  % decrease in relative abundance, Leptotrichia buccalis: 76% (p < 0.05)
[3]
  A. naeslundii as a percentage of total bacteria in the biofilm: 11.93 ± 2.34^b %

Source: US11717536B2, “Treatment for periodontitis” (THE UNIVERSITY OF MELBOURNE, priority 2017, dated 2023)
